Consider 22 compounds from PubChem BioAssay AID274 (DTP/NCI, 2004).

Inconclusive results and toxic doses are left out.

The assay has as its system BDF1 mice, Lewis lung carcinoma iv, survival T/C. Nature of the assay: NCI In Vivo Anticancer Drug Screen. Data for tumor model Lewis Lung Carcinoma (intravenous) in B6D2F1 (BDF1) mice. As to conditions: endpoint: median survival time, higher = longer survival. The protocol: The antitumor activity of compounds was measured in mice bearing transplantable tumors. Survival or tumor size were measured and the results are expressed as the measurement made in the treated group (T) divided by the measurement made in the vehicle treated control group (C). The tumor model used in this assay is Lewis Lung Carcinoma (intravenous) in B6D2F1 (BDF1) mice

Where [1] appears, read: dose: 12.5 mg/kg/injection, schedule: Q01DX009 (ip), vehicle: saline.
The mark [2] stands for this setting: dose: 25.0 mg/kg/injection, schedule: Q01DX009 (ip), vehicle: saline.
[3] abbreviates: dose: 50.0 mg/kg/injection, schedule: Q01DX009 (ip), vehicle: saline.
The mark [4] stands for this setting: dose: 100.0 mg/kg/injection, schedule: Q01DX009 (ip), vehicle: saline.
The mark [5] stands for this setting: dose: 3.12 mg/kg/injection, schedule: Q01DX009 (ip), vehicle: Klucel (hydroxypropylcellulose) (HPC).
The mark [6] stands for this setting: dose: 12.5 mg/kg/injection, schedule: Q01DX009 (ip), vehicle: Klucel (hydroxypropylcellulose) (HPC).
Where [7] appears, read: dose: 25.0 mg/kg/injection, schedule: Q01DX009 (ip), vehicle: Klucel (hydroxypropylcellulose) (HPC).
[8] abbreviates: dose: 50.0 mg/kg/injection, schedule: Q01DX009 (ip), vehicle: Klucel (hydroxypropylcellulose) (HPC).
The mark [9] stands for this setting: dose: 50.0 mg/kg/injection, schedule: Q01DX009 (ip), vehicle: saline with Tween-80.
Setting [10] is: dose: 100.0 mg/kg/injection, schedule: Q01DX009 (ip), vehicle: saline with Tween-80.
Where [11] appears, read: dose: 200.0 mg/kg/injection, schedule: Q01DX009 (ip), vehicle: saline with Tween-80.
The mark [12] stands for this setting: dose: 200.0 mg/kg/injection, schedule: Q01DX009 (ip), vehicle: saline.
Setting [13] is: dose: 400.0 mg/kg/injection, schedule: Q01DX009 (ip), vehicle: saline.
[14] abbreviates: dose: 12.5 mg/kg/injection, schedule: Q01DX009 (ip), vehicle: saline with Tween-80.
Setting [15] is: dose: 25.0 mg/kg/injection, schedule: Q01DX009 (ip), vehicle: saline with Tween-80.

Consider `O=S(=O)(c1ccc(NC(C(O)C(O)C(O)C(O)CO)S(=O)(=O)O)cc1)c1ccc(NC(C(O)C(O)C(O)C(O)CO)S(=O)(=O)O)cc1` (configuration not stated), for which the T/C is, setting by setting: (dose: 72.0 mg/kg/injection, schedule: Q01DX007 (ip), vehicle: saline) 90 % of control; (dose: 102.9 mg/kg/injection, schedule: Q01DX007 (ip), vehicle: saline) 95 % of control; (dose: 147.0 mg/kg/injection, schedule: Q01DX007 (ip), vehicle: saline) 86 % of control; (dose: 210.0 mg/kg/injection, schedule: Q01DX007 (ip), vehicle: saline) 96 % of control; (dose: 300.0 mg/kg/injection, schedule: Q01DX007 (ip), vehicle: saline) 94 % of control.

Turning to `O=C1C2CC(Cl)C(SSC3CC4C(=O)N(SC(Cl)(Cl)C(Cl)Cl)C(=O)C4CC3Cl)CC2C(=O)N1SC(Cl)(Cl)C(Cl)Cl` (configuration not stated), the T/C is, setting by setting: (dose: 6.0 mg/kg/injection, schedule: Q01DX009 (ip), vehicle: Klucel (hydroxypropylcellulose) (HPC)) 104 % of control; (dose: 12.0 mg/kg/injection, schedule: Q01DX009 (ip), vehicle: Klucel (hydroxypropylcellulose) (HPC)) 103 % of control; (dose: 24.0 mg/kg/injection, schedule: Q01DX009 (ip), vehicle: Klucel (hydroxypropylcellulose) (HPC)) 89 % of control; (dose: 48.0 mg/kg/injection, schedule: Q01DX009 (ip), vehicle: Klucel (hydroxypropylcellulose) (HPC)) 93 % of control; (dose: 96.0 mg/kg/injection, schedule: Q01DX009 (ip), vehicle: Klucel (hydroxypropylcellulose) (HPC)) 95 % of control.

As to `O=P(O)(NCCCl)NCCCl`, the T/C was 111 % of control (dose: 25.0 mg/kg/injection, schedule: Q01DX001 (ip), vehicle: saline with Tween-80); 123 % of control (dose: 50.0 mg/kg/injection, schedule: Q01DX001 (ip), vehicle: saline with Tween-80); 208 % of control (dose: 100.0 mg/kg/injection, schedule: Q01DX001 (ip), vehicle: saline with Tween-80).

With `CCCCCCCCCCCCN1C(C)=CS/C1=C\C=C\c1scc(C)[n+]1CCCCCCCCCCCC`, the T/C by setting is: (dose: 0.78 mg/kg/injection, schedule: Q01DX009 (ip), vehicle: saline with Tween-80) 95 % of control; (dose: 1.56 mg/kg/injection, schedule: Q01DX009 (ip), vehicle: saline with Tween-80) 98 % of control; (dose: 3.12 mg/kg/injection, schedule: Q01DX009 (ip), vehicle: saline with Tween-80) 91 % of control.

As to `COC1CC(CC2CCC(C)C(C(C)C(=O)O)O2)OC2(OC(C)(C3CCC(C)(C4OC(C5OC(O)(CO)C(C)CC5C)CC4C)O3)CC2C)C1C` (configuration not stated), the T/C runs as follows: (dose: 0.31 mg/kg/injection, schedule: Q01DX009 (ip), vehicle: Klucel (hydroxypropylcellulose) (HPC)) 99 % of control; (dose: 0.63 mg/kg/injection, schedule: Q01DX009 (ip), vehicle: Klucel (hydroxypropylcellulose) (HPC)) 94 % of control; (dose: 1.25 mg/kg/injection, schedule: Q01DX009 (ip), vehicle: Klucel (hydroxypropylcellulose) (HPC)) 100 % of control; (dose: 5.0 mg/kg/injection, schedule: Q01DX009 (ip), vehicle: Klucel (hydroxypropylcellulose) (HPC)) 96 % of control.

In the case of `COC1/C=C/C=C(/C)Cc2cc(O)c(Cl)c(c2)N(C)C(=O)CC(OC(=O)C(C)C)C2(C)OC2C(C)C2CC1(O)NC(=O)O2` (configuration not stated), the T/C is, setting by setting: (dose: 0.12 mg/kg/injection, schedule: Q01DX009 (ip), vehicle: saline + alcohol) 106 % of control; (dose: 0.25 mg/kg/injection, schedule: Q01DX009 (ip), vehicle: saline + alcohol) 110 % of control; (dose: 0.5 mg/kg/injection, schedule: Q01DX009 (ip), vehicle: saline + alcohol) 105 % of control; (dose: 1.0 mg/kg/injection, schedule: Q01DX009 (ip), vehicle: saline + alcohol) 105 % of control.

With `c1ccc(CN2CCOC2)cc1`, the T/C under setting [1] is 96 % of control, the T/C under setting [2] is 107 % of control, the T/C under setting [3] is 116 % of control and the T/C under setting [4] is 99 % of control.

`C1CCC2OCCOCCOC3CCCCC3OCCOCCOC2C1` (configuration not stated): the T/C is, setting by setting: under setting [5], 92 % of control; (dose: 6.25 mg/kg/injection, schedule: Q01DX009 (ip), vehicle: Klucel (hydroxypropylcellulose) (HPC)) 87 % of control; under setting [6], 101 % of control; under setting [7], 93 % of control; under setting [8], 91 % of control.

Turning to `Nc1nc(N)c(N=O)c(Nc2ccc(I)cc2)n1`, the T/C under setting [9] was 97 % of control, the T/C under setting [10] is 95 % of control and the T/C under setting [11] was 95 % of control.

`Cc1ncc([N+](=O)[O-])n1CCO`: the T/C was 93 % of control (dose: 18.75 mg/kg/injection, schedule: Q01DX009 (ip), vehicle: Klucel (hydroxypropylcellulose) (HPC)); 100 % of control (dose: 37.5 mg/kg/injection, schedule: Q01DX009 (ip), vehicle: Klucel (hydroxypropylcellulose) (HPC)); 95 % of control (dose: 75.0 mg/kg/injection, schedule: Q01DX009 (ip), vehicle: Klucel (hydroxypropylcellulose) (HPC)); 100 % of control (dose: 150.0 mg/kg/injection, schedule: Q01DX009 (ip), vehicle: Klucel (hydroxypropylcellulose) (HPC)); 91 % of control (dose: 300.0 mg/kg/injection, schedule: Q01DX009 (ip), vehicle: Klucel (hydroxypropylcellulose) (HPC)); 102 % of control (dose: 600.0 mg/kg/injection, schedule: Q01DX009 (ip), vehicle: Klucel (hydroxypropylcellulose) (HPC)).

On to `O=C(O)/C=C/C(=O)Nc1ccc(Cl)c(Cl)c1`, for which the T/C under setting [6] was 102 % of control; the T/C under setting [7] was 99 % of control; the T/C under setting [8] is 98 % of control; the T/C (dose: 100.0 mg/kg/injection, schedule: Q01DX009 (ip), vehicle: Klucel (hydroxypropylcellulose) (HPC)) was 104 % of control.

As for `CC[As](=O)(O)CC`, the T/C by setting is: under setting [2], 105 % of control; under setting [4], 101 % of control; under setting [12], 86 % of control.

On to `OCCNCCNc1ccnc2cc(Cl)ccc12`, for which the T/C was 115 % of control under setting [1], 94 % of control under setting [2], 107 % of control under setting [3] and 98 % of control under setting [4].

Turning to `CC(C)[NH-].CC(C)[NH-].O.O.[Cl][Pt+2][Cl]`, the T/C is 100 % of control (dose: 3.13 mg/kg/injection, schedule: Q01DX009 (ip), vehicle: dextrose) and 102 % of control (dose: 6.25 mg/kg/injection, schedule: Q01DX009 (ip), vehicle: dextrose).

For the compound `O=C(O)C(CSC(c1ccccc1)(c1ccccc1)c1ccccc1)N=Cc1cccs1` (configuration not stated), the T/C under setting [1] was 107 % of control, the T/C under setting [2] is 102 % of control and the T/C under setting [3] is 101 % of control.

Regarding `O=C1OC(C(O)CO)C(O)=C1O` (configuration not stated), the T/C under setting [12] was 112 % of control and the T/C under setting [13] is 100 % of control.

Consider `CCCC(=O)O`, for which the T/C is 93 % of control under setting [1], 104 % of control under setting [2], 95 % of control under setting [3] and 112 % of control under setting [4].

Consider `O=C1C(=O)c2cccnc2-c2ncccc21`, for which the T/C is 116 % of control (dose: 0.78 mg/kg/injection, schedule: Q01DX009 (ip), vehicle: Klucel (hydroxypropylcellulose) (HPC)); 91 % of control (dose: 1.56 mg/kg/injection, schedule: Q01DX009 (ip), vehicle: Klucel (hydroxypropylcellulose) (HPC)); 100 % of control under setting [5].

On to `CC12CC(C(=O)O)C3(O)CC(C)(C1)CC(C)(C2)C3` (configuration not stated) (tested in a mixture with another compound), for which the T/C is, setting by setting: under setting [14], 99 % of control; under setting [15], 86 % of control; under setting [9], 89 % of control; under setting [10], 94 % of control; under setting [11], 99 % of control.

Take `CN(C)CC(=O)c1ccc(O)c(O)c1`: the T/C reads like this: under setting [4], 99 % of control; under setting [12], 91 % of control; under setting [13], 90 % of control.

As for `CC(=O)C(O)N1C(=O)C=CC1=O` (configuration not stated), the T/C was 115 % of control (dose: 0.62 mg/kg/injection, schedule: Q01DX009 (ip), vehicle: saline) and 95 % of control (dose: 0.63 mg/kg/injection, schedule: Q01DX009 (ip), vehicle: saline).

`CCCCOCN(COCCCC)C(C)Cc1ccccc1` (configuration not stated): the T/C runs as follows: under setting [14], 102 % of control; under setting [15], 96 % of control; under setting [9], 95 % of control; under setting [10], 100 % of control; under setting [11], 101 % of control.
